# Laboratory results as given in patent US20240353338A1 (priority 2023, published 2024).
# What was measured:
# [1] = target: T1, transthyretin (TTR) (Homo sapiens, UniProt P02766); type: binding
# T1 construct: purchased Sigma Aldrich P1742
# [2] = target: SARS-CoV-2 M^pro (Severe acute respiratory syndrome coronavirus 2, UniProt P0DTD1); assay: TRIP screening of M^pro inhibitor binding and binding strength/affinity; conditions: 1 μM vs 5 μM M^pro mixes
# [3] = target: streptavidin (Streptomyces avidinii, UniProt P22629); type: binding
# streptavidin, sequence (P22629 37-163): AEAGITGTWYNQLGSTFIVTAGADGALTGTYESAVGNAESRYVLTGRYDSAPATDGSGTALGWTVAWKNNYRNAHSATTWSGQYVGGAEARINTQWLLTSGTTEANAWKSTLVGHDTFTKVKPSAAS
structure (smiles),measurement,setting,value
"O=[N+]([O-])c1ccc(O)c([N+](=O)[O-])c1 [DNP, 2,4 dinitrophenol]",binding between DNP and TTR over time (PC2 of 1230-1350 cm^-1 region),[1],enhanced over time
Nc1nnc(Sc2ncc([N+](=O)[O-])s2)s1 [Halicin],affinity for monomer M^pro versus dimer / dimer-monomer M^pro mix,[2],higher affinity for binding monomeric M^pro
O=C(O)CCCC[C@@H]1SC[C@@H]2NC(=O)N[C@@H]21 [biotin],binding of biotin to streptavidin (Trp N-H band shift 877 to 870 cm^-1),[3],strong hydrogen bonding occurred
